Test results reported in ChEMBL document CHEMBL5723582, “Data for DCP probe T-10430” (2024).

Legend:
Conditions in all cases: Compound concentration 1.0 uM
[1] = molecular target: Glucagon-like peptide 2 receptor (Homo sapiens) (UniProt O95838); experiment: RLU of GLP2R at 1.0 µM in the […] PRESTO-Tango GPCRome screen
[2] = molecular target: C5a anaphylatoxin chemotactic receptor 1 (Homo sapiens) (UniProt P21730); experiment: RLU of C5A at 1.0 µM in the […] PRESTO-Tango GPCRome screen
[3] = molecular target: D(4) dopamine receptor (Homo sapiens) (UniProt P21917); experiment: RLU of DRD4 at 1.0 µM in the […] PRESTO-Tango GPCRome screen
[4] = molecular target: Somatostatin receptor type 4 (Homo sapiens) (UniProt P31391); experiment: RLU of SSTR4 at 1.0 µM in the […] PRESTO-Tango GPCRome screen
[5] = molecular target: G-protein coupled receptor 65 (Homo sapiens) (UniProt Q8IYL9); experiment: RLU of GPR65 at 1.0 µM in the […] PRESTO-Tango GPCRome screen
[6] = molecular target: Mas-related G-protein coupled receptor member X1 (Homo sapiens) (UniProt Q96LB2); experiment: RLU of MRGPRX1 at 1.0 µM in the […] PRESTO-Tango GPCRome screen
[7] = molecular target: P2Y purinoceptor 6 (Homo sapiens) (UniProt Q15077); experiment: RLU of P2RY6 at 1.0 µM in the […] PRESTO-Tango GPCRome screen
[8] = molecular target: Prostaglandin F2-alpha receptor (Homo sapiens) (UniProt P43088); experiment: RLU of PTGFR at 1.0 µM in the […] PRESTO-Tango GPCRome screen
[9] = molecular target: Prostaglandin D2 receptor 2 (Homo sapiens) (UniProt Q9Y5Y4); experiment: RLU of GPR44 at 1.0 µM in the […] PRESTO-Tango GPCRome screen
[10] = molecular target: Glucagon-like peptide 1 receptor (Homo sapiens) (UniProt P43220); experiment: RLU of GLP1R at 1.0 µM in the […] PRESTO-Tango GPCRome screen
[11] = molecular target: Galanin receptor type 3 (Homo sapiens) (UniProt O60755); experiment: RLU of GAL3 at 1.0 µM in the […] PRESTO-Tango GPCRome screen
[12] = molecular target: Hydroxycarboxylic acid receptor 3 (Homo sapiens) (UniProt P49019); experiment: RLU of HCA3 at 1.0 µM in the Aequorin PRESTO-Tango GPCRome screen
[13] = molecular target: G-protein coupled receptor 83 (Homo sapiens) (UniProt Q9NYM4); experiment: RLU of GPR83 at 1.0 µM in the […] PRESTO-Tango GPCRome screen
[14] = molecular target: Secretin receptor (Homo sapiens) (UniProt P47872); experiment: RLU of SCTR at 1.0 µM in the […] PRESTO-Tango GPCRome screen
[15] = molecular target: 5-hydroxytryptamine receptor 2B (Homo sapiens) (UniProt P41595); experiment: RLU of HTR2B at 1.0 µM in the […] PRESTO-Tango GPCRome screen
[16] = molecular target: 5-hydroxytryptamine receptor 1E (Homo sapiens) (UniProt P28566); experiment: RLU of HTR1E at 1.0 µM in the […] PRESTO-Tango GPCRome screen
[17] = molecular target: Neuromedin-U receptor 2 (Homo sapiens) (UniProt Q9GZQ4); experiment: RLU of NMUR2 at 1.0 µM in the […] PRESTO-Tango GPCRome screen
[18] = molecular target: Delta-type opioid receptor (Homo sapiens) (UniProt P41143); experiment: RLU of OPRD1 at 1.0 µM in the […] PRESTO-Tango GPCRome screen
[19] = molecular target: Somatostatin receptor type 3 (Homo sapiens) (UniProt P32745); experiment: RLU of SSTR3 at 1.0 µM in the […] PRESTO-Tango GPCRome screen
[20] = molecular target: Alpha-1B adrenergic receptor (Homo sapiens) (UniProt P35368); experiment: RLU of ADRA1B at 1.0 µM in the […] PRESTO-Tango GPCRome screen
[21] = molecular target: G-protein coupled receptor family C group 5 member C (Homo sapiens) (UniProt Q9NQ84); experiment: RLU of GPRC5C at 1.0 µM in the […] PRESTO-Tango GPCRome screen
[22] = molecular target: C-X-C chemokine receptor type 3 (Homo sapiens) (UniProt P49682); experiment: RLU of CXCR3 at 1.0 µM in the […] PRESTO-Tango GPCRome screen
[23] = molecular target: Trace amine-associated receptor 9 (Homo sapiens) (UniProt Q96RI9); experiment: RLU of TAAR9 at 1.0 µM in the […] PRESTO-Tango GPCRome screen
[24] = molecular target: Adhesion G-protein coupled receptor F3 (Homo sapiens) (UniProt Q8IZF5); experiment: RLU of GPR113 at 1.0 µM in the […] PRESTO-Tango GPCRome screen
[25] = molecular target: G-protein coupled receptor 157 (Homo sapiens) (UniProt Q5UAW9); experiment: RLU of GPR157 at 1.0 µM in the […] PRESTO-Tango GPCRome screen
[26] = molecular target: Extracellular calcium-sensing receptor (Homo sapiens) (UniProt P41180); experiment: RLU of CASR at 1.0 µM in the […] PRESTO-Tango GPCRome screen
[27] = molecular target: C-C chemokine receptor type 5 (Homo sapiens) (UniProt P51681); experiment: RLU of CCR5 at 1.0 µM in the […] PRESTO-Tango GPCRome screen
[28] = molecular target: B1 bradykinin receptor (Homo sapiens) (UniProt P46663); experiment: RLU of BDKRB1 at 1.0 µM in the […] PRESTO-Tango GPCRome screen
[29] = molecular target: C-X-C chemokine receptor type 4 (Homo sapiens) (UniProt P61073); experiment: RLU of CXCR4 at 1.0 µM in the […] PRESTO-Tango GPCRome screen
[30] = molecular target: Mas-related G-protein coupled receptor member E (Homo sapiens) (UniProt Q86SM8); experiment: RLU of MRGPRE at 1.0 µM in the […] PRESTO-Tango GPCRome screen
[31] = molecular target: Vasopressin V2 receptor (Homo sapiens) (UniProt P30518); experiment: RLU of AVPR2 at 1.0 µM in the […] PRESTO-Tango GPCRome screen
[32] = molecular target: G-protein coupled receptor family C group 5 member D (Homo sapiens) (UniProt Q9NZD1); experiment: RLU of GPRC5D at 1.0 µM in the […] PRESTO-Tango GPCRome screen
[33] = molecular target: Beta-2 adrenergic receptor (Homo sapiens) (UniProt P07550); experiment: RLU of ADRB2 at 1.0 µM in the […] PRESTO-Tango GPCRome screen
[34] = molecular target: Trace amine-associated receptor 5 (Homo sapiens) (UniProt O14804); experiment: RLU of TAAR5 at 1.0 µM in the […] PRESTO-Tango GPCRome screen
[35] = system: Pyroglutamylated RFamide peptide receptor (Homo sapiens); experiment: RLU of QRFP at 1.0 µM in the […] PRESTO-Tango GPCRome screen

Chain of G-protein coupled receptor 65 (Homo sapiens) (Q8IYL9 whole entry): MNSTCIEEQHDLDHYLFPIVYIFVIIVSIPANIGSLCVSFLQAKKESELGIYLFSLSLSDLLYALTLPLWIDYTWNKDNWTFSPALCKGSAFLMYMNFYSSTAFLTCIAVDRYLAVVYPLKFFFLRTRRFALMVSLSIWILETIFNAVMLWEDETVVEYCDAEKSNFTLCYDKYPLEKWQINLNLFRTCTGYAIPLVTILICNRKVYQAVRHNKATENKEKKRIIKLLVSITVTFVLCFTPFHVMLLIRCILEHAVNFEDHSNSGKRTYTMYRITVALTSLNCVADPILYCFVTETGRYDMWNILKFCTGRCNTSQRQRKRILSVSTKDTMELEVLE
Chain of Delta-type opioid receptor (Homo sapiens) (P41143 whole entry): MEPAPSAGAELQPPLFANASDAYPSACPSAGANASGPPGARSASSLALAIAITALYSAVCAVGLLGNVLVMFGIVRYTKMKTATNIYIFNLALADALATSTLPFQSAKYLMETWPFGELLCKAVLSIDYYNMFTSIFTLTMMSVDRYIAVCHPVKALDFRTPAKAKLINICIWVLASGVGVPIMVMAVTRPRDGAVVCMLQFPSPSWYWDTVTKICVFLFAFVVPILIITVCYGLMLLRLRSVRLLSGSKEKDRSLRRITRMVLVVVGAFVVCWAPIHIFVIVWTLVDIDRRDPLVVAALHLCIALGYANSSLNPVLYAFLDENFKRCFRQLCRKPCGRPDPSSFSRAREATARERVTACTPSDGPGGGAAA
Chain of C-X-C chemokine receptor type 4 (Homo sapiens) (P61073 whole entry): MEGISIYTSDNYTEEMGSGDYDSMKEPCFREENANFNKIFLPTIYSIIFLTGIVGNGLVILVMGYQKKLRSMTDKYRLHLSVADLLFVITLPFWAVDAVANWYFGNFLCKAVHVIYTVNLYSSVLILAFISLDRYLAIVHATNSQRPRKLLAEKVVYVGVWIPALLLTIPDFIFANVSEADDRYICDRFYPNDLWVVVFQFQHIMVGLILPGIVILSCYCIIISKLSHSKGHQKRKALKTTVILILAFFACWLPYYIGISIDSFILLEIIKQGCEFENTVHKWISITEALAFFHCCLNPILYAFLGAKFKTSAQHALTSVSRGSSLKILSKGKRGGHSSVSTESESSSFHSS
Chain of Extracellular calcium-sensing receptor (Homo sapiens) (P41180 whole entry): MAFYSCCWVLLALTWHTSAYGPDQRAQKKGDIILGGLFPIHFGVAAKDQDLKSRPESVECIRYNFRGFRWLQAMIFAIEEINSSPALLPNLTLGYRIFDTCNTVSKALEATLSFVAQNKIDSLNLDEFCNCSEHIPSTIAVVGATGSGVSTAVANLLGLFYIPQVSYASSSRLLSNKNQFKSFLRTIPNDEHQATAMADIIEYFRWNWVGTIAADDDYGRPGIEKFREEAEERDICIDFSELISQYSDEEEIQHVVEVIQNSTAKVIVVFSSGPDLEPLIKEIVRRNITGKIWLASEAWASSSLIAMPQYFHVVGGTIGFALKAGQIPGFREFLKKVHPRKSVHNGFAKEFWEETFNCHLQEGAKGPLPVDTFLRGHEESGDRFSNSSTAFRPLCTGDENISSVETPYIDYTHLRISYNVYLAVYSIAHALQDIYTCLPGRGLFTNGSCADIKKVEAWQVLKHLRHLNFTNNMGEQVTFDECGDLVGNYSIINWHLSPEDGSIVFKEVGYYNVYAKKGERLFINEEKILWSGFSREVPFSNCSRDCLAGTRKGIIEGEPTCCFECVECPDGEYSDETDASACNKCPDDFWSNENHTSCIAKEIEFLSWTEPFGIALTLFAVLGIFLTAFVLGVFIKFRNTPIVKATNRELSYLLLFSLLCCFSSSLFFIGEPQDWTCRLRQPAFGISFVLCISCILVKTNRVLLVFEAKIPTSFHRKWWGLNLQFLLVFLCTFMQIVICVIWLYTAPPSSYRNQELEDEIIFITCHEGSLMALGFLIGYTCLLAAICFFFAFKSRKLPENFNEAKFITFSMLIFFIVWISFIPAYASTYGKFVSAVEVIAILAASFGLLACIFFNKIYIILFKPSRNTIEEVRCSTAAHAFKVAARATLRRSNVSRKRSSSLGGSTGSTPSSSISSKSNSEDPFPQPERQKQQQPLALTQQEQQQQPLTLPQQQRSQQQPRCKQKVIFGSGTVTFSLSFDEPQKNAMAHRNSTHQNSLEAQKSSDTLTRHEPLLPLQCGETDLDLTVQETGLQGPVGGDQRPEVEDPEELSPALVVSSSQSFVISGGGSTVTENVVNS
Chain of G-protein coupled receptor 83 (Homo sapiens) (Q9NYM4 whole entry): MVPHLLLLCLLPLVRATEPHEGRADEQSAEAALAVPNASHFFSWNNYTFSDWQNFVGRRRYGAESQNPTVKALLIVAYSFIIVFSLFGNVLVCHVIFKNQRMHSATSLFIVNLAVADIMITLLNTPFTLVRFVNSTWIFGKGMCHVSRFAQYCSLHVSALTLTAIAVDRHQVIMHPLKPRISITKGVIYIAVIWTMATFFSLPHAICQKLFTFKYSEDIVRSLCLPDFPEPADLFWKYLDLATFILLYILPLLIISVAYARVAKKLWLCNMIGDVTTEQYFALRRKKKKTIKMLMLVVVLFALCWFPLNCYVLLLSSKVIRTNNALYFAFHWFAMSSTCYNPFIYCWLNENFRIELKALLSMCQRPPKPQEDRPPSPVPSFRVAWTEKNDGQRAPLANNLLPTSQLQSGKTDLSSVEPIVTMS
Chain of G-protein coupled receptor family C group 5 member C (Homo sapiens) (Q9NQ84 whole entry): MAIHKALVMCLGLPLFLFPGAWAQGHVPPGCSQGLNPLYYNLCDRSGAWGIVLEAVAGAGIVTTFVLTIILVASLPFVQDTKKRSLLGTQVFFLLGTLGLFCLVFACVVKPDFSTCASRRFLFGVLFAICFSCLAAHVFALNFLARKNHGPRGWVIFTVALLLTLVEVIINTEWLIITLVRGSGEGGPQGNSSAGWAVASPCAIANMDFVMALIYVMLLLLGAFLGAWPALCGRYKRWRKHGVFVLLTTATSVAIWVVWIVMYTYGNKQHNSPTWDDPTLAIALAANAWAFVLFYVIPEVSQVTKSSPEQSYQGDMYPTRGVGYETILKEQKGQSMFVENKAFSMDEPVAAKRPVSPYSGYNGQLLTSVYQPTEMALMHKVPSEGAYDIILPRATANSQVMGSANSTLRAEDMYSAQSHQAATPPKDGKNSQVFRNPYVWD
Chain of Beta-2 adrenergic receptor (Homo sapiens) (P07550 whole entry, looked up): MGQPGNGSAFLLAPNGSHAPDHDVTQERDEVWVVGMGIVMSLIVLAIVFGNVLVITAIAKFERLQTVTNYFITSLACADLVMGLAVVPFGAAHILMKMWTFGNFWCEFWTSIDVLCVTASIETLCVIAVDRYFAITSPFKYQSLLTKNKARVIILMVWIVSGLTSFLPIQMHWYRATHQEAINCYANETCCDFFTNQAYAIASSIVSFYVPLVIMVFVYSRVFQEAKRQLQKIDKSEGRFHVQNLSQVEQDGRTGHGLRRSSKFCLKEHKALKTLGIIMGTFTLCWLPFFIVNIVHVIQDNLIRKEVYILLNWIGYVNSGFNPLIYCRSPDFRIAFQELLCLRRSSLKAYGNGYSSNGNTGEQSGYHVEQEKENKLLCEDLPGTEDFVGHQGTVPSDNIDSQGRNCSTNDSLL
Chain of D(4) dopamine receptor (Homo sapiens) (P21917 whole entry): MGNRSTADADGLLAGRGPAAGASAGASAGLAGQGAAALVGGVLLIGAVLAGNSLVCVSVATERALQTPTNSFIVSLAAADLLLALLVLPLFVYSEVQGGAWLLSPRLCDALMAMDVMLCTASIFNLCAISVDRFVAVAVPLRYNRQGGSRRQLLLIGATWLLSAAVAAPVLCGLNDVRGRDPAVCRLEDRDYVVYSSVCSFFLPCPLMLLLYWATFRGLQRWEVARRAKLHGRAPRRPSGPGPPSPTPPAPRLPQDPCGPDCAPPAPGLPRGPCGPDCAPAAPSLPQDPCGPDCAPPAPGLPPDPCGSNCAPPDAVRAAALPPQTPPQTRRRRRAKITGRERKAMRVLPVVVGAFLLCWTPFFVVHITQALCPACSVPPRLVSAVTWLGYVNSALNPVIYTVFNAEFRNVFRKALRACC
Chain of Adhesion G-protein coupled receptor F3 (Homo sapiens) (Q8IZF5 whole entry): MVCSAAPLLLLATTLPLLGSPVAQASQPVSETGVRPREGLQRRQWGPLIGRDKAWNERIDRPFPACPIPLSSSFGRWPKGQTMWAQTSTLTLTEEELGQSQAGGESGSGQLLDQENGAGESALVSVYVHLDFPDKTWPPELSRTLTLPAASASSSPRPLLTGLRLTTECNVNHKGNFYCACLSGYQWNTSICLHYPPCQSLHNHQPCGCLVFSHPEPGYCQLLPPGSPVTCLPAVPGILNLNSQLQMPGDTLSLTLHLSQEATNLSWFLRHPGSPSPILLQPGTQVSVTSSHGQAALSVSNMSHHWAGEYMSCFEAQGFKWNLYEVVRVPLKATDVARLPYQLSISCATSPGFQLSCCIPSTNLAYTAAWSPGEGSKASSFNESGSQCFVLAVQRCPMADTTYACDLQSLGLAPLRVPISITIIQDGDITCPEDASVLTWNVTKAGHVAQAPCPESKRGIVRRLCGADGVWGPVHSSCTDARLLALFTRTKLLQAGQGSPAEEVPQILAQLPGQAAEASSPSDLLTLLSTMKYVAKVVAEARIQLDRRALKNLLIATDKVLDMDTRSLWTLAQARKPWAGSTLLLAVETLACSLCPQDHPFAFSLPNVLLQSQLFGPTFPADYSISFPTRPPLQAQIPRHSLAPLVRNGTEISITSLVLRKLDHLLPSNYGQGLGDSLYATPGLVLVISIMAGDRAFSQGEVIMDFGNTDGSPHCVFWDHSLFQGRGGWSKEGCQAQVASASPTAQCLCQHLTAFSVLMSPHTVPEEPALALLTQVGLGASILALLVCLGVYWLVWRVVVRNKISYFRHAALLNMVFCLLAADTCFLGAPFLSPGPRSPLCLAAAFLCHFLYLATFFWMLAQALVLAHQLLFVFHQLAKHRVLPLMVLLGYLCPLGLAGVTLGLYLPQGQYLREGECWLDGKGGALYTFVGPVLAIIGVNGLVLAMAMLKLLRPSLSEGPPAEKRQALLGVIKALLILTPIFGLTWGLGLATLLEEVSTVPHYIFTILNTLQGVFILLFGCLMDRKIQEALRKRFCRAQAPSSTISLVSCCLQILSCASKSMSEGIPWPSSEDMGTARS

CCCCC(=O)N1CC2(C1)CN(c1ccccc1-c1nnn[nH]1)C2
RLU [1]: -2690 | RLU [2]: 2280 | RLU [3]: -1390 | RLU [4]: 120 | RLU [5]: -1350 | RLU [6]: 319 | RLU [7]: -7240 | RLU [8]: -81.2 | RLU [9]: -285 | RLU [10]: 3480 | RLU [11]: -1500 | RLU [12]: 1810 | RLU [13]: 834 | RLU [14]: -71.4 | RLU [15]: -1740 | RLU [16]: -638 | RLU [17]: 710 | RLU [18]: 1290 | RLU [19]: 342 | RLU [20]: -2730 | RLU [21]: 3560 | RLU [22]: -568 | RLU [23]: -547 | RLU [24]: 387 | RLU [25]: -4180 | RLU [26]: 4400 | RLU [27]: 2710 | RLU [28]: -3310 | RLU [29]: -831 | RLU [30]: -3210 | RLU [31]: 2870 | RLU [32]: 1.74 | RLU [33]: 4580 | RLU [34]: 821 | RLU [35]: -577
